“Also recorded” adds a separate entry of the source.
Tests used:
TGFβ = assay: Quantitative RT-PCR of mRNA at the wound site; type: in vivo, mice; settings: Bx sites on day 3
Experimental: (§1) FIG. 6 is a bar graph of the effect of antibiotic ointment on the levels of b-FGF and TGFβ mRNA. Mice were treated as described in FIG. 3. Total RNA was extracted from the Bx sites on day 3. Quantitative RT-PCR was performed to detect b-FGF and TGFβ. Results represent the mean±SE of at least 4 independent samples/treatment group. *p<0.05 vs untreated group.
(§2) Tissue from the biopsy site was excised, homogenized in Trizol, and extracted with chloroform. […] 1 μg of total RNA was reverse-transcribed using the QUANTITECT™ Reverse Transcription. Kit (QIAGEN®). Purified cDNA was used as the template for quantitative RT-PCR conducted using pre-designed primer/probe sets for interleucin (IL)-1β, CCL2, IFNa, IFNβ, basic fibroblast growth factor (FGF), transforming growth factor (TGF)β, and glyceraldehyde 3-phosphate dehydrogenase (GAPDH) (Applied Biosystems, Foster City, Calif.). Gene expression levels were analyzed using the STEPONEPLUS™ RT-PCR system (APPLIED BIOSYSTEMS®). All reagents and probes used in this system were purchased from APPLIED BIOSYSTEMS®.

b-FGF = assay: Quantitative RT-PCR of mRNA at the wound site; type: in vivo, mice; settings: Bx sites on day 3
Experimental: as §1, §2

BALB/c mice = assay: Murine in vivo wound repair model (6 mm full-thickness excisional punch biopsy); settings: for effect on delay in wound healing caused by antibiotic: TLR ligand incorporated into / co-administered with antibiotic ointment; for effect on wound healing: simply applied over a pre-existing layer of antibiotic ointment or petrolatum
Experimental: The wound repair model of Devalaraja et al (J Invest Dermatol 2000; 115: 234-44) was used. Skin on the back was shaved and treated antibiotic ointment or petrolatum. In some studies, mice were injected s.c. at the base of the tail with 50 ug/g of vancomycin and imipenrm/cilastatin (Fernandez et al., Antimicrob Agents Chemother 2010; 54: 116-25, 2010). Fourteen days later, the mice were anesthetized by intraperitoneal injection of ketamine (80 μg/g) plus xylazine (10 ug/g). The skin on the back was gently cleaned with PBS. A 6 mm full-thickness excisional punch biopsy (including the Pannilulus carnosus) was taken using an ACU-PUNCH® (Fort Lauderdale, Fla.) from the right and left upper paravertebral region of each animal. Individual biopsy sites were coated with 100 μl of antibiotic ointment±50 μg CpG ODN and/or 5 μg IMQ, and then covered with nonadhesive sterile gauze (Sato et al., Wound Repair Regen 2010; 18: 586-93). Mice were wrapped with a form-fitting bandage to further protect the biopsy sites. Wound contraction was recorded every other day by digital photography and changes calculated using NIH Image J software (available on the internet, version 1.37). Each treatment was tested and results averaged in a minimum of five independent animals/group.
A well-established murine model of wound healing was used to evaluate the effect of antibiotic treatment on the rate of wound repair (Devalaraja et al., J Invest Dermatol 2000; 115: 234-44). Identical full-thickness excisional biopsies were taken from skin sites treated with either antibiotic ointment or petrolatum (different treatments were administered to contralateral sides of each animal). Sequential photographs provided a permanent record of the speed of wound closure. Untreated biopsy sites and sites treated with petrolatum (ointment control), healed at nearly identical rates.

IFNβ = assay: Quantitative RT-PCR of mRNA at the wound site; type: in vivo, mice; settings: day 3 after biopsy
Experimental: as §2

CCL2 mRNA = assay: Quantitative RT-PCR of mRNA at the wound site; type: in vivo, mice; settings: added to antibiotic ointment; day 3; p<0.05
Experimental: as §2

IFNa = assay: Quantitative RT-PCR of mRNA at the wound site; type: in vivo, mice; settings: day 3 after biopsy
Experimental: as §2

mice = settings: topical administration; cited from earlier work
IL-1β mRNA = assay: Quantitative RT-PCR of mRNA at the wound site; type: in vivo, mice; settings: added to antibiotic ointment; day 3; p<0.05
Experimental: as §2

macaques = settings: topical administration; cited from earlier work

| Compound | expression of mRNA encoding TGFβ (TGFβ) | expression of b-FGF at the wound site (b-FGF) | effect on delay in wound healing caused by antibiotic (BALB/c mice) | effect on wound healing (BALB/c mice) | expression of IFNβ at the biopsy site (IFNβ) | effect on antibiotic-reduced CCL2 mRNA level (CCL2 mRNA) | expression of IFNa at the biopsy site (IFNa) | wound closure (mice) | effect on antibiotic-reduced IL-1β mRNA level (IL-1β mRNA) | wound closure (macaques) |
| --- | --- | --- | --- | --- | --- | --- | --- | --- | --- | --- |
| CC(C)Cn1cnc2c(N)nc3ccccc3c21 [IMQ, 1-isobutyl-1H-imidazo[4,5-c]quinolin-4-amine, reference compound] | up-regulated | increased | completely corrected the delay in wound healing; also recorded: reversed | no effect on wound healing | reversed | to a lesser extent IMQ corrected these defects | reversed | – | – | – |
| CpG ODN: Phosphorothioate K-type CpG ODN 1555, sequence GCTAGACGTTAGCGT, SEQ ID NO: 30 (DNA, all phosphorothioate, methylation of C not given here) | up-regulated | increased | completely corrected the delay in wound healing; also recorded: reversed | no effect on wound healing | reversed | corrected these defects | reversed | significantly accelerated wound closure | corrected these defects | significantly accelerated wound closure |

Source: patent US10076535B2, “Use of CPG oligonucleotides co-formulated with an antibiotic to accelerate wound healing” (THE UNITED STATES OF AMERICA, as represented by the …, priority 2012, dated 2018)
